The values that follow come from paper PMC6594751, “The mechanism of error induction by the antibiotic viomycin provides insight into the fidelity mechanism of translation” (eLife, 2019).

Where two headings read alike, the source gives them in different places.

Assay [1] has as its system 70S ribosomes displaying cognate UUC or near-cognate codons CUC, AUC, UAC or UUA in the A site. The experiment in a line: f[^3H]Met-Phe dipeptide formation, quench-flow. Format: biochemical, E. coli. From the text:
To study the impact of viomycin on translational accuracy, we designed experiments to measure its effect on the kinetic efficiency ( kcat/KM ) of GTP hydrolysis by EF-Tu and peptide bond formation for both cognate and near-cognate codon-anticodon interactions. A reaction mixture containing varying concentrations of viomycin and Phe-tRNAGAAPhe in TC with EF-Tu·GTP was rapidly mixed in a quench-flow instrument with initiated 70S ribosomes displaying either cognate (UUC) or near-cognate (CUC) codons in the A site. For studying GTP hydrolysis, the TCs contained [^3H]GTP and the 70S ribosomes had non-radioactive fMet-tRNA^fMet in the P site, while for studying peptide bond formation the TCs contained non-radioactive GTP and the 70S ribosomes had f[^3H]Met-tRNA^fMet bound in the P site. The reactions were stopped at different times by addition of formic acid and the relative amounts of the reaction products were analyzed by ion-exchange chromatography ([^3H]GDP) or RP-HPLC (f[^3H]Met-Phe) with on-line radiation detection.
The model presented above predicts that viomycin sensitivity ( KInc ) for any codon·anticodon pair depends on the accuracy of initial codon selection as defined by the product of the near-cognate back reaction rate constants q3nc and q4nc (Equations 4 and 5) in the absence as well as presence of viomycin. […] To test this prediction, we measured how the kcat/KM of dipeptide formation varied with viomycin concentration for tRNAGAAPhe reading three additional near-cognate codons (Figure 4A); AUC, UAC or UUA (the underlined base differs from the cognate codon UUC). We quantified the viomycin sensitivity of each codon by estimating its KI value by fitting of Equation 4 to plots of kcat/KM versus viomycin concentration (Figure 4B). We also estimated the accuracies of initial selection by measuring kcat/KM for GTP hydrolysis with the three codons in the absence of viomycin. Both sets of experiments were carried out exactly as described above.
All experiments were performed at 37°C in HEPES-polymix buffer (95 mM KCl, 5 mM NH4Cl, 0.5 mM CaCl2, 8 mM putrescine, 1 mM spermidine, 5 mM Mg(OAc)2, 1 mM dithioerythritol and 5 mM HEPES pH 7.5). All reaction mixes contained 10 mM phosphoenolpyruvate (PEP), 1 µg/ml pyruvate kinase (PK) and 0.1 µg/ml myokinase (MK). His-tagged initiation factors IF1, IF2 and IF3, elongation factor Ts, and phenylalanine and leucine aminoacyl tRNA-synthetases were purified using nickel-affinity chromatography (HisTrap GE Healthcare). Wild-type elongation factor Tu was prepared as in [Ehrenberg et al. (1990)]. All protein concentrations were determined using the Bradford assay. Ribosomes (E. coli MRE600) and f[^3H]Met-tRNA^fMet were prepared according to [Antoun et al. (2004)]; ribosome concentration was determined spectrophotometrically. XR7 mRNAs with coding sequences AUG-UUC, AUG-CUC, AUG-UAC and AUG-UUA were prepared as in [Borg and Ehrenberg (2015)], see theGV Appendix I for full mRNA sequences. tRNA^Phe was prepared as in [Holm et al. (2016)]. [^3H]Met and [^3H]GTP were from Perkin-Elmer, viomycin was from USP, all other chemicals were from either Merck or Sigma-Aldrich.
Two mixtures were prepared. The ribosome mixture contained 70S ribosomes (0.5 µM), IF1, IF2 and IF3 (1 µM each), f[^3H]Met-tRNA^fMet (1 µM), mRNA (2 µM), GTP (1 mM) and ATP (1 mM). The TC mixture contained EF-Tu (1–10 µM), EF-Ts (1 µM), phenylalanine (200 µM), PheRS (0.5 µM), tRNA^Phe (12 µM), viomycin (0–2000 µM), GTP (1 mM) and ATP (1 mM). After 15 min incubation at 37°C, equal volumes of the two mixes were rapidly mixed and the reaction quenched at different time points with formic acid (17% final concentration) using a quench-flow instrument (RQF-3 KinTek corp.). After quenching, the samples were centrifuged at 20,800 g and the supernatant discarded. The pellet was dissolved in 165 µl 0.5 M KOH to cleave the peptides from the tRNA. […]

For assay [2], the system named is ribosome. The following applies: ref Holm et al., 2016; cited from earlier work. The text has this: From these structures it seems likely that association of viomycin to the ribosome requires bases A1492 and A1493 in their flipped-out conformation and that the presence of viomycin on the ribosome will effectively block the monitoring bases from re ...

For viomycin, the total accuracy in assay [1] (CUC vs UUC, 1 mM viomycin (83,500 ± 8000 without viomycin)) turned out to be 4.0 ± 0.3. Further, the “reduction in total accuracy” value in assay [1] (CUC vs UUC, 1 mM viomycin vs absence of viomycin) was 21,000 fold. In addition, the “correlation of accuracy of initial selection with viomycin KI” value in assay [1] (codons CUC, AUC, UAC, UUA (Figure 4C)) was “clear correlation between the two”. For the same substance, the “effect of viomycin on kcat/KM of cognate dipeptide formation” value in assay [1] (cognate UUC codon, 37°C) is recorded as “did not change with the addition of viomycin”. The “kcat/KM of cognate dipeptide formation (average over viomycin concentrations)” value in assay [1] (cognate UUC codon, HEPES-polymix pH 7.5, 37°C, error SEM) turned out to be 3.83e+07 ± 700000 M⁻¹ s⁻¹. For the same substance, the “kcat/KM of near-cognate dipeptide formation” value in assay [1] (near-cognate CUC codon, 1 mM viomycin (0.0005 ± 0.00004 in the absence of viomycin), HEPES-polymix pH 7.5, 37°C, error SEM) amounted to 9.4e+06 ± 800000 M⁻¹ s⁻¹. Also, the “kcat/KM of near-cognate GTP hydrolysis compared with dipeptide formation” value in assay [1] (near-cognate CUC codon, all tested viomycin concentrations) is given as “virtually identical”. The “viomycin concentration required to double the rate at which tRNA^Phe reads the codon CUC” value in assay [1] (near-cognate CUC, from in vitro experiments) was 80 ± 8 nM. Moreover, in assay [1] (near-cognate, proofreading accuracy 115 ± 15 in the absence of viomycin), the “proofreading selection by viomycin-bound ribosomes” value was “incapable of performing proofreading selection”. For the same substance, the Ki in assay [1] (tRNA^Phe(GAA) reading near-cognate codon AUC (first position mismatch), fit of Equation 4, accuracy of initial selection 2400 ± 120 without viomycin, read-out: KI from dipeptide formation, AUC) was found to be 7 ± 0.3 mM; in assay [1] (tRNA^Phe(GAA) reading near-cognate codon CUC, fit of Equation 4 (Figure 1D), 37°C, read-out: KI (viomycin concentration at which accuracy has decreased to two), from dipeptide formation, CUC), 3.3 ± 0.1 mM; in assay [1] (tRNA^Phe(GAA) reading near-cognate codon UAC (second position mismatch), fit of Equation 4, accuracy of initial selection 6400 ± 670 without viomycin, read-out: KI from dipeptide formation, UAC), 29 ± 2.7 mM; in assay [1] (tRNA^Phe(GAA) reading near-cognate codon UUA (third position mismatch), fit of Equation 4, accuracy of initial selection 580 ± 47 without viomycin, read-out: KI from dipeptide formation, UUA), 3.25 ± 0.2 mM. For the same substance, in assay [2], the “effect of A-site-bound tRNA on affinity of viomycin for the ribosome” value is listed as “A-site-bound tRNA greatly increases the affinity of viomycin for the ribosome”.
